Our source for the Ki values is patent US12552804B2, “Tricyclic heterocycles as FGFR inhibitors” (Incyte Corporation, priority 2019, dated 2026).

Where only a bound is given, the exact number is not on record here.

For the test, the target named is wild-type un-phosphorylated FGFR3 protein (Homo sapiens, UniProt P22607). The test can be described thus: FGFR Enzymatic Assay (FRET detection of peptide phosphorylation). It counts as biochemical. Conditions: pre-incubated for 4 hours, read-out: FGFR3_Ki. The protocol: The inhibitor potency of the exemplified compounds was determined in an enzyme discontinuous assay that measures peptide phosphorylation using FRET measurements to detect product formation. Inhibitors were serially diluted in DMSO and a volume of 0.2 μL was transferred to the wells of a 384-well plate. A 5 μL/well volume of enzyme isoforms of FGFR (−1, −2, −3 wild-type and mutant isoforms, −4) including phosphorylated and un-phosphorylated proteins diluted in assay buffer (50 mM HEPES, 10 mM MgCl2, 1 mM EGTA, 0.01% Tween-20, 5 mM DTT, pH 7.5) was added to the plate and pre-incubated with inhibitor for 5 to 15 minutes at ambient temperature. Appropriate controls (enzyme blank and enzyme with no inhibitor) were included on the plate. […] The ATP Km values were pre-determined in a separate series of experiments. The reaction plate was incubated at 25° C. for 1 hr and the reactions were ended with the addition of 5 μL/well of quench solution (50 mM Tris, 150 mM NaCl, 0.5 mg/mL BSA, pH 7.8; 45 mM EDTA, 600 nM staurosporin, with Perkin Elmer Lance Reagents at 3.75 nM Eu-antibody PY20 and 180 nM APC-Streptavidin). The plate was allowed to equilibrate for ˜10 minutes at ambient temperature before scanning on a PheraStar plate reader (BMG Labtech) instrument.
Chain of wild-type un-phosphorylated FGFR3 protein (P22607 23-806): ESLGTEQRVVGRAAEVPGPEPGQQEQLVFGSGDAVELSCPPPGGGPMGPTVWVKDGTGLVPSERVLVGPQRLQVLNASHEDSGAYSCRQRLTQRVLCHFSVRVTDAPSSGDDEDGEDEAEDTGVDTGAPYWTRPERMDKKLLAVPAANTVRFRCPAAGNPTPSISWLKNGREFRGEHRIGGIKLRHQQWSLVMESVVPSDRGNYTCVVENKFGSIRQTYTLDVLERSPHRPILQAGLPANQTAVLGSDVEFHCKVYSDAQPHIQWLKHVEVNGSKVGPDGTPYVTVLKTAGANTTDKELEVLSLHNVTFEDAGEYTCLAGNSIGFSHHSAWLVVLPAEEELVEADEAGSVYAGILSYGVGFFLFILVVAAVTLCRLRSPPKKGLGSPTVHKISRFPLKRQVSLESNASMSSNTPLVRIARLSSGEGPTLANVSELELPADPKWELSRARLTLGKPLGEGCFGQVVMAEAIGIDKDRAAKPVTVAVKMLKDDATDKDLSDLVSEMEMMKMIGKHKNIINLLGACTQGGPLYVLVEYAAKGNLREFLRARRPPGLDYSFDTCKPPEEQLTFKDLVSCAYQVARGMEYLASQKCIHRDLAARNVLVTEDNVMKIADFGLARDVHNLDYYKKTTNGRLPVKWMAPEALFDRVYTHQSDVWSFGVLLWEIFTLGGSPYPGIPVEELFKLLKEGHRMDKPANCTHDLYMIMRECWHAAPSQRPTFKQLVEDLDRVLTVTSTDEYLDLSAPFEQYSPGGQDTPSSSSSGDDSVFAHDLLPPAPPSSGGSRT
Either GraphPad prism or XLfit was used to analyze the data. The IC50 values were derived by fitting the data to a four parameter logistic equation producing a sigmoidal dose-response curve with a variable Hill coefficient. Prism equation: Y=Bottom+(Top−Bottom)/(1+10^((LogIC50−X)*Hill slope)); XLfit equation: Y=(A+((B−A)/(1+((X/C)^D)))) where X is the logarithm of inhibitor concentration and Y is the response.
The data in Table 1 was measured in wild-type un-phosphorylated FGFR3 protein.
For `O=C(N1CCOCC1)N1CC[C@H](n2cc(-c3cnc4ccn5c(CO)c(-c6c(Cl)cccc6Cl)nc5c4c3)cn2)C1` [Example 57, (S)-(3-(4-(2-(2,6-Dichlorophenyl)-3-(hydroxymethyl)imidazo[2,1-f][1,6]naphthyridin-9-yl)-1H-pyrazol-1-yl)pyrrolidin-1-yl)(morpholino)methanone], the Ki was under 10 nM. With `CC(O)c1c(-c2c(Cl)cccc2Cl)nc2c3cc(-c4cnn([C@H]5CCN(C(=O)CO)C5)c4)cnc3ccn12` (stereo partly drawn) [Example 58, 1-((3S)-3-(4-(2-(2,6-dichlorophenyl)-3-(1-hydroxyethyl)imidazo[2,1-f][1,6]naphthyridin-9-yl)-1H-pyrazol-1-yl)pyrrolidin-1-yl)-2-hydroxyethan-1-one], the Ki was under 10 nM. The figure for `Cc1c(-c2c(Cl)cccc2Cl)nc2c3cc(-c4cnn(C56CCN(C(=O)CO)CC5C6)c4)cnc3ccn12` (stereo not drawn) [Example 59, 1-(6-(4-(2-(2,6-Dichlorophenyl)-3-methylimidazo[2,1-f][1,6]naphthyridin-9-yl)-1H-pyrazol-1-yl)-3-azabicyclo[4.1.0]heptan-3-yl)-2-hydroxyethan-1-one] is under 10 nM; for `CC(=O)N1CCC2CC2(n2cc(-c3cnc4ccn5c(C)c(-c6c(Cl)cccc6Cl)nc5c4c3)cn2)C1` (stereo not drawn) [Example 60, 1-(1-(4-(2-(2,6-Dichlorophenyl)-3-methylimidazo[2,1-f][1,6]naphthyridin-9-yl)-1H-pyrazol-1-yl)-3-azabicyclo[4.1.0]heptan-3-yl)ethan-1-one] it is under 10 nM. The figure for `Cc1c(-c2c(Cl)cccc2Cl)nc2c3cc(-c4ccc(C5CN(C(=O)CO)C5)nc4)cnc3ccn12` [Example 61, 1-(3-(5-(2-(2,6-Dichlorophenyl)-3-methylimidazo[2,1-f][1,6]naphthyridin-9-yl)pyridin-2-yl)azetidin-1-yl)-2-hydroxyethan-1-one] is 10 to 100 nM; for `CC(=O)N1CC(c2cncc(-c3cnc4ccn5c(C)c(-c6c(Cl)cccc6Cl)nc5c4c3)c2)C1` [Example 62, 1-(3-(5-(2-(2,6-Dichlorophenyl)-3-methylimidazo[2,1-f][1,6]naphthyridin-9-yl)pyridin-3-yl)azetidin-1-yl)ethan-1-one] it is 10 to 100 nM; for `CC(=O)N1CC(c2ccc(-c3cnc4ccn5c(C)c(-c6c(Cl)cccc6Cl)nc5c4c3)cc2)C1` [Example 63] it is under 10 nM. For `CC(=O)N1CC[C@H](n2cc(-c3cnc4ccn5c(CO)c(-c6ccccc6Cl)nc5c4c3)cn2)C1` [Example 64, (S)-1-(3-(4-(2-(2-Chlorophenyl)-3-(hydroxymethyl)imidazo[2,1-f][1,6]naphthyridin-9-yl)-1H-pyrazol-1-yl)pyrrolidin-1-yl)ethan-1-one], the Ki is under 10 nM.

For the molecule `CC(C)c1c(-c2ccccc2Cl)nc2c3cc(-c4cnn([C@H]5CCN(C(=O)CO)C5)c4)cnc3ccn12` [Example 65, (S)-1-(3-(4-(2-(2-Chlorophenyl)-3-isopropylimidazo[2,1-f][1,6]naphthyridin-9-yl)-1H-pyrazol-1-yl)pyrrolidin-1-yl)-2-hydroxyethan-1-one], the Ki was in the range of 10 to 100 nM. For `O=C(CO)N1CC[C@H](n2cc(-c3cnc4ccn5c(Br)c(-c6c(F)cccc6Cl)nc5c4c3)cn2)C1` [Example 66, (S)-1-(3-(4-(3-Bromo-2-(2-chloro-6-fluorophenyl)imidazo[2,1-f][1,6]naphthyridin-9-yl)-1H-pyrazol-1-yl)pyrrolidin-1-yl)-2-hydroxyethan-1-one] the value was under 10 nM; for `Cc1c(C2CC2)nc2c3cc(-c4cnn(C)c4)cnc3ccn12` [Example 67, 2-Cyclopropyl-3-methyl-9-(1-methyl-1H-pyrazol-4-yl)imidazo[2,1-f][1,6]naphthyridine], 100 to 400 nM; for `Cn1cc(-c2cnc3ccn4c(CO)c(-c5c(Cl)cccc5Cl)nc4c3c2)cn1` [Example 68, (2-(2,6-Dichlorophenyl)-9-(1-methyl-1H-pyrazol-4-yl)imidazo[2,1-f][1,6]naphthyridin-3-yl)methanol], under 10 nM.

For the molecule `OCc1c(-c2c(Cl)cccc2Cl)nc2c3cc(-c4cnn(C5CC5)c4)cnc3ccn12` [Example 69, (9-(1-Cyclopropyl-1H-pyrazol-4-yl)-2-(2,6-dichlorophenyl)imidazo[2,1-f][1,6]naphthyridin-3-yl)methanol], the Ki is under 10 nM. On to `OCc1c(-c2c(Cl)cccc2Cl)nc2c3cc(-c4cnn(C5CCOC5)c4)cnc3ccn12` (stereo not drawn) [Example 70, (2-(2,6-Dichlorophenyl)-9-(1-(tetrahydrofuran-3-yl)-1H-pyrazol-4-yl)imidazo[2,1-f][1,6]naphthyridin-3-yl)methanol], for which the Ki was under 10 nM. For `OCc1c(-c2c(Cl)cccc2Cl)nc2c3cc(-c4cnn(C5COC5)c4)cnc3ccn12` [Example 71, (2-(2,6-Dichlorophenyl)-9-(1-(oxetan-3-yl)-1H-pyrazol-4-yl)imidazo[2,1-f][1,6]naphthyridin-3-yl)methanol] the value was under 10 nM; for `CN(C)CCn1cc(-c2cnc3ccn4c(CO)c(-c5c(Cl)cccc5Cl)nc4c3c2)cn1` [Example 72, (2-(2,6-Dichlorophenyl)-9-(1-(2-(dimethylamino)ethyl)-1H-pyrazol-4-yl)imidazo[2,1-f][1,6]naphthyridin-3-yl)methanol], under 10 nM. The figure for `CC(C)n1cc(-c2cnc3ccn4c(CO)c(-c5c(Cl)cccc5Cl)nc4c3c2)cn1` [Example 73, (2-(2,6-Dichlorophenyl)-9-(1-isopropyl-1H-pyrazol-4-yl)imidazo[2,1-f][1,6]naphthyridin-3-yl)methanol] is under 10 nM; for `OCc1c(-c2c(Cl)cccc2Cl)nc2c3cc(-c4cnn(C(F)F)c4)cnc3ccn12` [Example 74, (2-(2,6-Dichlorophenyl)-9-(1-(difluoromethyl)-1H-pyrazol-4-yl)imidazo[2,1-f][1,6]naphthyridin-3-yl)methanol] it is under 10 nM. Take `N#CCCn1cc(-c2cnc3ccn4c(CO)c(-c5c(Cl)cccc5Cl)nc4c3c2)cn1` [Example 75, 3-(4-(2-(2,6-Dichlorophenyl)-3-(hydroxymethyl)imidazo[2,1-f][1,6]naphthyridin-9-yl)-1H-pyrazol-1-yl)propanenitrile]: the Ki was under 10 nM. For `CC(C)(O)Cn1cc(-c2cnc3ccn4c(CO)c(-c5c(Cl)cccc5Cl)nc4c3c2)cn1` [Example 76, 1-(4-(2-(2,6-Dichlorophenyl)-3-(hydroxymethyl)imidazo[2,1-f][1,6]naphthyridin-9-yl)-1H-pyrazol-1-yl)-2-methylpropan-2-ol] the value was under 10 nM; for `N#CCn1cc(-c2cnc3ccn4c(CO)c(-c5c(Cl)cccc5Cl)nc4c3c2)cn1` [Example 77, 2-(4-(2-(2,6-Dichlorophenyl)-3-(hydroxymethyl)imidazo[2,1-f][1,6]naphthyridin-9-yl)-1H-pyrazol-1-yl)acetonitrile], under 10 nM; for `CN1CCC(n2cc(-c3cnc4ccn5c(CO)c(-c6c(Cl)cccc6Cl)nc5c4c3)cn2)CC1` [Example 78, (2-(2,6-Dichlorophenyl)-9-(1-(1-methylpiperidin-4-yl)-1H-pyrazol-4-yl)imidazo[2,1-f][1,6]naphthyridin-3-yl)methanol], under 10 nM. For `CC(C)(CO)n1cc(-c2cnc3ccn4c(CO)c(-c5c(Cl)cccc5Cl)nc4c3c2)cn1` [Example 79, 2-(4-(2-(2,6-Dichlorophenyl)-3-(hydroxymethyl)imidazo[2,1-f][1,6]naphthyridin-9-yl)-1H-pyrazol-1-yl)-2-methylpropan-1-ol] the value was under 10 nM; for `CS(=O)(=O)CCn1cc(-c2cnc3ccn4c(CO)c(-c5c(Cl)cccc5Cl)nc4c3c2)cn1` [Example 80, (2-(2,6-Dichlorophenyl)-9-(1-(2-(methylsulfonyl)ethyl)-1H-pyrazol-4-yl)imidazo[2,1-f][1,6]naphthyridin-3-yl)methanol], under 10 nM.

With `OCc1c(-c2c(Cl)cccc2Cl)nc2c3cc(-c4cnn(CC(F)(F)F)c4)cnc3ccn12` [Example 81, (2-(2,6-Dichlorophenyl)-9-(1-(2,2,2-trifluoroethyl)-1H-pyrazol-4-yl)imidazo[2,1-f][1,6]naphthyridin-3-yl)methanol], the Ki is under 10 nM. Consider `OCc1c(-c2c(Cl)cccc2Cl)nc2c3cc(-c4cnn(CCN5CCOCC5)c4)cnc3ccn12` [Example 82, (2-(2,6-Dichlorophenyl)-9-(1-(2-morpholinoethyl)-1H-pyrazol-4-yl)imidazo[2,1-f][1,6]naphthyridin-3-yl)methanol], for which the Ki was under 10 nM.

Regarding `OCCn1cc(-c2cnc3ccn4c(CO)c(-c5c(Cl)cccc5Cl)nc4c3c2)cn1` [Example 83, 2-(4-(2-(2,6-Dichlorophenyl)-3-(hydroxymethyl)imidazo[2,1-f][1,6]naphthyridin-9-yl)-1H-pyrazol-1-yl)ethan-1-ol], the Ki is under 10 nM.
